Assay [1] deals with Staphylococcus aureus. Description: Antimicrobial activity against 2 MCF graRS-deficient Staphylococcus aureus isolate JKD6196 by Etest method.
Assay [2] deals with Staphylococcus aureus. Description: Antimicrobial activity against 2 mCF Staphylococcus aureus isolate JKD6208 harboring graS T136I mutant gene by Etest method.
Assay [3] concerns Staphylococcus aureus. Description: Antimicrobial activity against 2 MCF vancomycin-intermediate Staphylococcus aureus isolate JKD6008 by Etest method.
Assay [4] has as its system Staphylococcus aureus. Description: Antimicrobial activity against 2 MCF graRS-deficient Staphylococcus aureus isolate JKD6205 harboring pCu1 plasmid by Etest method.
Assay [5] relates to Staphylococcus aureus. Description: Antimicrobial activity against 2 MCF graRS-deficient Staphylococcus aureus isolate JKD6206 harboring plasmid JKD6151 by Etest method.

Converted amounts (≈) assume the structure as drawn.

The term MIC denotes the lowest concentration that inhibits growth of the organism.

`CN[C@H](CC(C)C)C(=O)N[C@H]1C(=O)N[C@@H](CC(N)=O)C(=O)N[C@H]2C(=O)N[C@H]3C(=O)N[C@H](C(=O)N[C@H](C(=O)O)c4cc(O)cc(O)c4-c4cc3ccc4O)[C@H](O)c3ccc(c(Cl)c3)Oc3cc2cc(c3O[C@@H]2O[C@H](CO)[C@@H](O)[C@H](O)[C@H]2O[C@H]2C[C@](C)(N)[C@H](O)[C@H](C)O2)Oc2ccc(cc2Cl)[C@H]1O` [VANCOMYCIN]: the MIC against Staphylococcus aureus [1] worked out at 1.5 µg/mL (≈ 1.04 µM); with Staphylococcus aureus [2] it was 6 µg/mL (≈ 4.14 µM); against Staphylococcus aureus [3], 8 µg/mL (≈ 5.52 µM); with Staphylococcus aureus [4], 1.5 µg/mL (≈ 1.04 µM); against Staphylococcus aureus [5], 3 µg/mL (≈ 2.07 µM).

Source of the values: ChEMBL document CHEMBL1275507, “Genomic analysis reveals a point mutation in the two-component sensor gene graS that leads to intermediate vancomycin resistance in clinical Staphylococcus aureus” (2008).
